Experiment [1] concerns the target EphA2. Also on record: method as in PMID 29928781. The settings on record: read-out: Literature value for EphA2, kinobeads; cited from earlier work.
The next experiment relates to EphB4. Also on record: method as in PMID 20803239. The settings on record: cellular autophosphorylation; cited from earlier work.
Experiment [2] deals with apoptosis signal-regulating kinases 1-3 (MAP3K5/6/15). The experiment in a line: Competitive site-specific PhosID-ABPP with XO44 in intact A549 cells. Type of experiment: binding, human. The settings on record: apparent IC50, nonunique peptide, n = 3, read-out: IC50 MAP3K5/6/15 (nonunique peptide: MAP3K5;K709, MAP3K6;K677, MAP3K15;K681). Here is the method:
(§1) 1e^6 cells were plated in 15 cm plates (Greiner) 3 days before treatment and kept in a humidified atmosphere with 5% CO2 at 37 °C. The growth medium was replaced by 10 ml treatment [DMEM with 0.5% FBS and 100 units/ml PS supplemented with the corresponding concentration of NVP-BHG712 (Sigma-Aldrich) or DMSO] and incubated at 37 °C, 5% CO2 for 3 h. Then, 10 μl 25 mM XO44 (PF-6808472, Sigma-Aldrich) was added directly to the medium and swirled to enable dissolution. Subsequently, the cells were incubated at 37 °C, 5% CO2 for 4 h. The samples for Supplemental Fig. S1 were generated by directly incubating with 25 μM XO44-containing growth medium for 4 h.
(§2) After treatment, the cells were washed with ice-cold DPBS and harvested using a cell scraper in 1 ml ice-cold DPBS. Then, the cell suspension was spun down at 2000g for 1 min, and the supernatant was aspirated. The cell pellet was snap-frozen in liquid nitrogen and stored at −80 °C for later use.
Cell pellets were lysed in 500 μl lysis buffer per 15 cm plate of cells, consisting of 50 mM Hepes (Sigma-Aldrich, pH 7.5), 0.5% NP-40 (Applichem), 0.2% SDS (Gen-Apex), 2 mM MgCl2 (Sigma-Aldrich), 10 mM NaCl (Merck), 1× protease inhibitor cocktail (Roche), and 0.5 μl/ml Benzonase (Millipore). […] The supernatant was collected, and the protein concentration was determined by a bicinchoninic acid assay (Thermo Fisher Scientific). […]

The next experiment relates to DDR1. Also on record: method as in PMID 36799129. The settings on record: cited from earlier work.
Experiment [3] has as its target EphA2. Also on record: method as in PMID 29928781. The settings on record: read-out: Literature value for EphA2, microscale thermo-phoresis; cited from earlier work.
Experiment [4] concerns the target T1, epithelial discoidin domain-containing receptor 1 (DDR1) (Homo sapiens, UniProt Q08345).
T1 construct: endogenous in cells; host or cells: cultured cells treated intact (A549 per the earlier reading)
The experiment in a line: Competitive site-specific PhosID-ABPP with XO44 in intact A549 cells. The settings on record: apparent IC50, pepsin-based analysis, n = 3, read-out: IC50 DDR1;K655. Type of experiment: binding. The protocol: as §1, §2
(§3) Cell pellets were lysed in 500 μl lysis buffer per 15 cm plate of cells, consisting of 50 mM Hepes (Sigma-Aldrich, pH 7.5), 0.5% NP-40 (Applichem), 0.2% SDS (Gen-Apex), 2 mM MgCl2 (Sigma-Aldrich), 10 mM NaCl (Merck), 1× protease inhibitor cocktail (Roche), and 0.5 μl/ml Benzonase (Millipore). Cell lysates were incubated at room temperature for 15 min to allow DNA cleavage. Cell debris and DNA were spun down for 30 min at 20,567g at 16 °C. The supernatant was collected, and the protein concentration was determined by a bicinchoninic acid assay (Thermo Fisher Scientific).
(§4) The copper(I)-catalyzed azide-alkyne cycloaddition (CuAAC) was performed on cellular lysates in 2 M urea (Merck) in 1× 50 mM Hepes (pH 7.5). CuAAC components were added in the following order: 5 mM tris(3-hydroxypropyltriazolylmethyl)amine (Lumiprobe), 2.5 mM CuSO4 5·H2O (Sigma-Aldrich), 500 μM phosphonate-azide (prepared as described in van Bergen et al., 2023 ([28])), and 25 mM sodium ascorbate (Sigma-Aldrich). Samples were incubated for 2 h at room temperature while rotating. Methanol–chloroform precipitation was performed to remove the CuAAC components, and the air-dried pellets were resuspended in 8 M urea and sonicated in a bioruptor (Diagenode) with the high amplitude setting for 10 min with cycles of 30 s on and 30 s off.
(§5) Clicked and dissolved protein samples were diluted to 4M urea with 50 mM ammonium bicarbonate (pH 8, AmBic, Sigma-Aldrich). The proteins were reduced with 4 mM DTT (Sigma-Aldrich) for 60 minutes at room temperature and alkylated in the dark using 8 mM iodoacetamide (Sigma-Aldrich) for 30 min. Residual iodoacetamide was quenched by adding DTT to a final concentration of 4 mM.
(§6) Next, samples were diluted 2× with 50 mM AmBic and digested with LysC (1:75 enzyme to protein ratio, Wako) for 4 h at 37 °C. Finally, proteins were digested overnight using Trypsin (1:50, enzyme to protein ratio, Sigma-Aldrich) at 37 °C. Proteolysis with chymotrypsin was performed similarly to the trypsin digestion, only replacing both proteolytic enzymes with α-chymotrypsin (bovine, 1:75, enzyme to protein ratio, Sigma-Aldrich) overnight at 37 °C. Digested material was desalted using 3 cc C18 Seppak cartridges (Waters) and air dried using a vacuum centrifuge.
(§7) For the digestion with pepsin, protease incubation (Porcine, 1:50, enzyme to protein ratio, Sigma-Aldrich) was performed for 4 h at 37 °C in 40 mM HCl (pH 2). Digested material was directly desalted using 3 cc C18 Seppak cartridges and air dried using a vacuum centrifuge.
(§8) Samples were dephosphorylated prior to immobilized metal affinity chromatography (IMAC) enrichment. Desalted peptides were dissolved in 1× rCutSmart buffer (pH 8, New England BioLabs) and incubated with 50 units of alkaline phosphatase (calf intestinal, QuickCIP, New England BioLabs) overnight at 37 °C while shaking. After dephosphorylation, all peptides were again desalted using 3 cc C18 Seppak cartridges and air-dried using a vacuum centrifuge. […]

For a further experiment, the target named is T2, LYN (Homo sapiens, UniProt P07948).
T2 construct: endogenous in cells; host or cells: cultured cells treated intact (A549 per the earlier reading)
The experiment is described as above. Type of experiment: binding. The settings on record: apparent IC50, pepsin-based analysis, n = 3, read-out: IC50 LYN;K275. The protocol:
as §1, §2, §3, §4, §5, §6, §7, §8

The target of experiment [5] is T3, EphA2 (Homo sapiens, UniProt P29317).
T3 construct: endogenous in cells; host or cells: cultured cells treated intact (A549 per the earlier reading)
Described as above. The class given is binding. The settings on record: apparent IC50, 3 h inhibitor then 25 μM XO44 4 h. Here is the method:
as §1, §2, §3, §4, §5, §6, §7, §8

Where two headings read alike, the source gives them in different places.

T3 sequence (P29317 24-976): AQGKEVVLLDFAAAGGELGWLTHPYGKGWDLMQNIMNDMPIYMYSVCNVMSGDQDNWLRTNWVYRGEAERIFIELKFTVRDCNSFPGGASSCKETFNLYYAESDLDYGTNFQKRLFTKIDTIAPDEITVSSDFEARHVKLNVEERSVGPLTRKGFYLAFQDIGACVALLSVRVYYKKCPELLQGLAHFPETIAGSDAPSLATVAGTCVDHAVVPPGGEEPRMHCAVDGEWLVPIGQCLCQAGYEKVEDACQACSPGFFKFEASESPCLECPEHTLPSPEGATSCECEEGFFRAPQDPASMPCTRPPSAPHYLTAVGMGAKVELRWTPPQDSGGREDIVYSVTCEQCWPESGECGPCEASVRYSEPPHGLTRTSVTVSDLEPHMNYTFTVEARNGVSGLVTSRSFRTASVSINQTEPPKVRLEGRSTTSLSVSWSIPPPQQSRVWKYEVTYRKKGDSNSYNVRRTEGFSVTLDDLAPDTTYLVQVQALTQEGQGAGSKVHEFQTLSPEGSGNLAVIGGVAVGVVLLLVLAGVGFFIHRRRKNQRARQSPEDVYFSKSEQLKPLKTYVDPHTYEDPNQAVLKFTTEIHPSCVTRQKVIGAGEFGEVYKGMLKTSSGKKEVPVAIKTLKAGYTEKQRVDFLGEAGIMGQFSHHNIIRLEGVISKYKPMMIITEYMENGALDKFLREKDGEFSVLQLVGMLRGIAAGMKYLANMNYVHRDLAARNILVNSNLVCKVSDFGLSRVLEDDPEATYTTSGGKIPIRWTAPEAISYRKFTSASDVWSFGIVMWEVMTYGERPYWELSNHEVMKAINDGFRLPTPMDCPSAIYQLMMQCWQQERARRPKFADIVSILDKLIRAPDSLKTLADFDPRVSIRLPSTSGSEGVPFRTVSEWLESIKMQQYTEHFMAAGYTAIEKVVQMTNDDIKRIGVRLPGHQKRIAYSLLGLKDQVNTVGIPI
T2 sequence (P07948 whole entry): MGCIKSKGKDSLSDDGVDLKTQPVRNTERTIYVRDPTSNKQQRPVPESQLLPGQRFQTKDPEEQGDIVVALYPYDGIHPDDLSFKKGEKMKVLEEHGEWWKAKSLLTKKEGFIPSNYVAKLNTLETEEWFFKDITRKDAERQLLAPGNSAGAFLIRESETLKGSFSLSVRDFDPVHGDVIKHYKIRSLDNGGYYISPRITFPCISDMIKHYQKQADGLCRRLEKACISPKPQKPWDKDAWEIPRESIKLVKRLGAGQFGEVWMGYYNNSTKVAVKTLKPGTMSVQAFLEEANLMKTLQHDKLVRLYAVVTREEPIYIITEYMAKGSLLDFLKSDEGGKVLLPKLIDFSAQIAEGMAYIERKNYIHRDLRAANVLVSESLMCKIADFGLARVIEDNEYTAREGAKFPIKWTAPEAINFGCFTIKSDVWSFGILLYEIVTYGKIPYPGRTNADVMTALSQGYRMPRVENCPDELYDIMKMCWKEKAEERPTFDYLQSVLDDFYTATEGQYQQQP
T1 sequence (Q08345 19-913): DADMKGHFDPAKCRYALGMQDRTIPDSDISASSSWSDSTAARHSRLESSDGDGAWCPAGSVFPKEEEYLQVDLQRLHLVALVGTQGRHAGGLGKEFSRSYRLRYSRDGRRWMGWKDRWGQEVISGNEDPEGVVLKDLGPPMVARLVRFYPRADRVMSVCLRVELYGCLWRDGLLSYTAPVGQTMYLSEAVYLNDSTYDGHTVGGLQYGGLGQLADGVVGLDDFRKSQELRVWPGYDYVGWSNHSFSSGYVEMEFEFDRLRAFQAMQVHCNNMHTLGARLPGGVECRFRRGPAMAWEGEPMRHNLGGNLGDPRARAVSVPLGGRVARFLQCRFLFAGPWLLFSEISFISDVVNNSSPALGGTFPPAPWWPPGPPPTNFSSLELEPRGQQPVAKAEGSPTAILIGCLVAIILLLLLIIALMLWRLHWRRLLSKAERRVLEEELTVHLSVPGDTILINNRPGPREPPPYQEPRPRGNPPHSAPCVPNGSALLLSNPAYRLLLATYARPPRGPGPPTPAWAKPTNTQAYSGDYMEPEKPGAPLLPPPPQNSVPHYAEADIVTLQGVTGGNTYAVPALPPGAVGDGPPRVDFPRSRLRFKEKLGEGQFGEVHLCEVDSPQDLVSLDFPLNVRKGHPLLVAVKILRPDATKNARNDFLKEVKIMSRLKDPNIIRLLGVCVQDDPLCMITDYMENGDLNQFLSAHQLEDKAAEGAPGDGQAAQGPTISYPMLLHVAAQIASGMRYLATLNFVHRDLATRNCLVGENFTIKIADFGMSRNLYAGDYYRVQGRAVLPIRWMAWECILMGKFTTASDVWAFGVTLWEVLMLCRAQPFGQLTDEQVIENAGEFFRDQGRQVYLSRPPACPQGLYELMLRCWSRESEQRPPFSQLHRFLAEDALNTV

With NVP-BHG712, the Kd was 240 nM on EphA2 [1] and 13 nM at EphA2 [3]. Further, the IC50 with EphB4 is 25 nM; in experiment [2], 9700 nM; in experiment [4] it was 2.1 nM; at LYN it was 13400 nM; at EphA2 [5] (pepsin, n = 3, read-out: IC50 EphA2;K646, peptic analysis), 20.5 nM; at EphA2 [5] (trypsin, n = 3, read-out: IC50 EphA2;K646, tryptic analysis) it was 17 nM. For the same substance, the “Binding to DDR1 in kinobeads profiling” value with DDR1 is given as “does not bind”.

Source of the values: publication PMC11889359, “Site-Specific Competitive Kinase Inhibitor Target Profiling Using Phosphonate Affinity Tags” (Molecular & Cellular Proteomics : MCP, 2025).
